The values that follow come from ChEMBL document CHEMBL1148077, “Stellettin A, a new triterpenoid pigment from the marine sponge Stelletta tenuis” (1994).

This assay concerns P388. Description: Cytotoxicity against mouse P388 cells. Type of assay: functional. The following applies: read-out: ED50 (the source's name).

Converted amounts (≈) assume the structure as drawn.

On to `C\C(=C/C=C/C(C)=C1/C(=O)C[C@H]2[C@@]3(C)CCC(=O)C(C)(C)[C@@H]3CC[C@]12C)c1ccc(C)c(=O)o1` [STELLETIN A], for which the EC50 came to 1 ng/mL (≈ 2.16 nM).
